Results taken from paper PMC9423655, “Huntington’s disease phenotypes are improved via mTORC1 modulation by small molecule therapy” (PLoS ONE, 2022).
Like-named read-outs stand apart in the source and are kept apart here.

Key:
mTORC1 = mTORC1 activation (pS6K1 immunoblot) in leucine-starved HEK293T cells; format: cell-based; conditions: HEK293T cells starved of leucine 50 minutes, treatment 10 minutes
Protocol: All cell lines were cultured in DMEM (Corning, #MT10013CV) supplemented with 10% heat-inactivated FBS (Gibco, #16140–071). All cell lines were maintained at 37°C and 5% CO2. For amino acid starvation, cells were rinsed once with and incubated Amino acid-free RPMI (US Biologicals, #R8999-04A) supplemented with 10% dialyzed FBS (Gibco, #26400044) for 50 min followed by treatment with NV-5297, leucine, or vehicle for 10 minutes. For leucine starvation, cells were rinsed once with and incubated in leucine-free DMEM (AthenaES, #0420) supplemented with 10% dialyzed FBS (Gibco, #26400044) for 50 minuted followed by treatment with NV-5297, leucine, or vehicle for 10 minutes.
(A) Activation of the mTORC1 pathway by NV-5297. […] (B) NV-5297 disrupts Sestrin2/GATOR2 in the in vitro Sesn2/WDR24 protein-protein interaction assay in a dose-dependent manner. […] Representative immunoblots of ^T389pS6K1 and quantification of the normalized level of ^T389pS6K1 from 8 independent experiments (F) show TORC1 activity in unedited HEK-293T cells, HEK-293T cells deficient for Sestrin 1 (Sesn1), 2 (Sesn2) and 3 (Sesn3) (D) or HEK-293T cells deficient for the GATOR1 component Nprl3 (E) after 50 minutes leucine starvation followed by the addition of vehicle, NV-5297 or leucine for 10 minutes. […]

[1] = Pharmacokinetic analysis of NV-5297 in mice (i.v. and oral, LC-MS/MS); format: in vivo; conditions: C57BL/6 mice
Protocol: […] Mice were given free access to food and water for both i.v. and orally dosed groups. After dosing, tail-vein blood was collected at the indicated time points into K2EDTA tubes and centrifuged at 2,000g for 5 minutes to collect serum. Levels of NV-5297 were quantified via LC-MS/MS. WinNonlin V 6.2 statistics software (Pharsight Corporation, California, USA) was used to generate pharmacokinetics parameters using non-compartmental model.
PK parameters of NV-5297 after an IV dose at 1 mg/kg
PK parameters Unit Estimate
PK parameters of NV-5297 after an OD dose at 5 mg/kg

N171-82Q HD mice = assay: Isoprenaline cardiac stress: survival, weight, echocardiography, heart weight, cardiomyocyte area, fibrosis; format: in vivo, N171-82Q mice
Protocol: The initial trial consisted in one week of oral dosing in 12 weeks old N171-82Q males. The chronic 6 weeks treatment (Veh n = 15, NV-5297 n = 14) took place from 6 to 12 weeks of age. The cardiac stress took place in animals from 10 to 12 weeks of age (Veh-Sal n = 9, NV-Sal n = 10, Veh-Iso n = 16, NV-Iso n = 11).
Mice were anesthetized with 2% isoflurane and restrained on a stage with electrocardiogram (EKG) sensors. Transthoracic echocardiograms were performed using the Vevo 3100 Imaging System with a linear array MX550D transducer. Images were acquired by an experienced echocardiographer and then analyzed offline using the Vevo LAB analysis software. Parasternal long axis views and short axis views were used to assess left ventricular function. Measurements were performed to evaluate left ventricular dimensions during both systole and diastole of the cardiac cycle. The Vevo LAB left ventricle [LV] analysis tool, LV trace, was used to calculate cardiac output [CO] (heart rate ∙ stroke volume), fractional shortening [FS] (ventricle diameter at the end of the diastole–ventricle diameter at the end of the systole), ejection fraction [EF] (percentage of blood ejected by the left ventricle by heart beat), stroke volume (SV) (blood volume ejected from the left ventricle per beat), heart rate [HR] (bpm), left ventricular mass [LVmass], dimensions and volumes. Both imaging and analysis were performed by an operator blinded to the mice experimental treatment.
Cardiomyocyte area was measured in wheat germ agglutinin-labelled heart sections as previously described. Briefly, sections were cleared and rehydrated through xylene and ethanol, then labelled with WGA conjugated to Alexa Fluor 594 (8 μg/ml, Biotium) per manufacturer’s protocol. Sections were counterstained with Hoechst stain (2 μg/ml, Thermo Scientific). High-power digital images were collected such that the entirety of the left ventricular free wall was represented. A grid was superimposed over each image in ImageJ to randomly select cardiomyocytes sectioned perpendicular to the long axis, and the area of those cells was measured manually. At least 240 cardiomyocytes were measured per section. Cardiomyocyte areas were averaged for each treatment group.
The percent of area occupied by fibrotic tissue was calculated as previously described. Briefly, heart sections were cleared and rehydrated through xylene and ethanol. Sections were counterstained with Weigert’s haematoxylin (Sigma) per manufacturer’s protocol. Collagen was labelled by staining to equilibrium with Picrosirius red (0.1% Direct Red 80, Sigma, in saturated picric acid, Sigma). Bright field and corresponding polarized light digital images were taken such that the entirety of the left ventricular free wall was represented. Image threshold was adjusted to highlight either the entire tissue (bright field) or the fibrotic tissue (polarized) in ImageJ, and percent area occupied by fibrotic tissue was calculated from these images. Large vessels were excluded from the analysis.
Isoprenaline (Sigma) was dissolved in sterile PBS and administered by continuous infusion using implantable mini-osmotic pumps (Alzet) at a dose of 30 mg/kg body mass/day. Pumps were filled and primed in a sterile environment and inserted under 2.5% isoflurane anesthesia into the right dorsal subcutaneous space caudal to the scapulae.
We next tested if daily NV-5297 dosing in HD mice could enable cardiac adaptation to chronic stress. In this experiment, the NV-Sal and Veh-Sal groups have an osmotic pump implant on their back. The presence of this pump makes the echocardiography more challenging, justifying the difference to the baseline groups measurements along with the smaller sample size for this experiment. For this study, we found no significant […] and therefore we focused on the changes within the vehicle-treated groups and within the NV-5297-treated groups. […]

[2] = male, mouse, serum, IV dose at 1 mg/kg
[3] = male, mouse, serum, OD (oral) dose at 5 mg/kg
[4] = N171-82Q mice under isoprenaline cardiac stress

CC(C)(C[C@H](N)C(=O)O)C(F)(F)F [NV-5297, (S)-2-amino-5,5,5-trifluoro-4,4-dimethylpentanoic acid]
mTORC1 activation measured by phosphorylated S6K1 (pS6K1 / p70S6K1) (mTORC1): activates mTORC1 in leucine-starved HEK293T cells in a dose-dependent manner | Cmax ([1]; OD (oral) dose at 5 mg/kg): 2893 ng/mL | bioavailability ([1]; male, mouse, serum, po, 160 mg/kg, refers to S1 Table, read-out: oral bioavailability): 100% | half-life ([1]; male, mouse, serum, oral, 160 mg/kg, refers to S1 Table, read-out: half-life (converted)): ~3 h | Tmax ([1]; male, mouse, serum, oral, 160 mg/kg, refers to S1 Table, read-out: time to maximal concentration (tmax) (converted)): 0.5 h | AUC(0-inf) [1, 2]: 1240 ng·h/mL | AUC(0-t) [1, 2]: 1220 ng·h/mL | MRT inf [1, 2]: 1.56 h | clearance [1, 2]: 13.3 mL/min/kg | half-life ([1]; male, mouse, serum, IV dose at 1 mg/kg, read-out: Terminal T1/2 (converted)): 1.45 h | Vd ([1]; male, mouse, serum, IV dose at 1 mg/kg, read-out: Vss): 1.26 L/kg | bioavailability ([1]; male, mouse, serum, OD (oral) dose at 5 mg/kg vs IV 1 mg/kg, read-out: F (bioavailability)): 104% | AUC(0-inf) [1, 3]: 6470 ng·h/mL | AUC(0-t) [1, 3]: 6460 ng·h/mL | half-life ([1]; male, mouse, serum, OD (oral) dose at 5 mg/kg, read-out: Terminal T1/2 (converted)): 2.86 h | Tmax ([1]; male, mouse, serum, OD (oral) dose at 5 mg/kg, read-out: Tmax): 0.5 h | mortality (N171-82Q HD mice; Iso-stressed N171-82Q mice (isoprenaline 30 mg/kg/day, 14 days), NV-5297 160 mg/kg oral daily): 45% | body weight over trial duration (N171-82Q HD mice; [4]): maintained their weight | cardiac output from baseline (N171-82Q HD mice; [4]): increase | cardiomyocyte area (N171-82Q HD mice; [4]): increased | ejection fraction from baseline (N171-82Q HD mice; [4]): increased | fractional shortening from baseline (N171-82Q HD mice; [4]): increased | heart fibrosis (N171-82Q HD mice; [4]): devoid of fibrosis | heart mass (N171-82Q HD mice; [4]): elevated | stroke volume from baseline (N171-82Q HD mice; [4]): increased | heart rate (N171-82Q HD mice; N171-82Q mice under isoprenaline cardiac stress (NV-Iso)): maintain a normal heart rate | survival (N171-82Q HD mice; N171-82Q mice with saline implant (NV-Sal group), NV-5297 160 mg/kg oral daily): 100%
